Test results as given in paper PMC11480295, “Hypecotumines A-D, new isoquinoline alkaloids with potential PCSK9 inhibition activity from Hypecoum erectum L” (Natural Products and Bioprospecting, 2024).

biological target: PCSK9 (Homo sapiens, UniProt Q8NBP7); experiment: SPR (Biacore T200, PCSK9 immobilized on CM5 chip); type: binding
Sequence (Q8NBP7 31-152): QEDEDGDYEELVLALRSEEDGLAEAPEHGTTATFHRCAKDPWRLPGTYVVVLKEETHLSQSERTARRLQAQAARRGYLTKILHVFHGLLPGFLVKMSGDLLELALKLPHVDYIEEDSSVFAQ
Sequence (Q8NBP7 153-692): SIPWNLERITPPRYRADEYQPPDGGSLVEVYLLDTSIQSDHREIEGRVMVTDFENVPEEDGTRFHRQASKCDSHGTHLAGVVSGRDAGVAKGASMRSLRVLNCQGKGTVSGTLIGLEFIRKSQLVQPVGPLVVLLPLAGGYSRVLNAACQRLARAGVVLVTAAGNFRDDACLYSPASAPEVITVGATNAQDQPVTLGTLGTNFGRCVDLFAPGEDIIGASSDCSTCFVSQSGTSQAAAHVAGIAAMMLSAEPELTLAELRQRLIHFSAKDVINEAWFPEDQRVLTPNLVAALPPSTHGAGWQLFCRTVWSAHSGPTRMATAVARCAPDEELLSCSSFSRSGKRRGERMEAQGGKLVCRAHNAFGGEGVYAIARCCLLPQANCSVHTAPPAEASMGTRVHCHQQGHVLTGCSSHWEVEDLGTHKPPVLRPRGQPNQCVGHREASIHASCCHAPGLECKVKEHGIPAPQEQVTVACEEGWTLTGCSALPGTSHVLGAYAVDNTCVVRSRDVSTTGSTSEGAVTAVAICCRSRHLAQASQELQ

Row | Kd [µM] | SMILES
1 | 306 | C=C(C1=[N+](C)CCc2cc3c(cc21)OCO3)c1ccc(OC)c(O)c1C(=O)[O-] [compound 1, Hypecotumine A]
2 | 248 | C=C(C1=[N+](C)CCc2cc(OC)c(OC)cc21)c1ccc(OC)c(O)c1C(=O)[O-] [compound 2, Hypecotumine B]
3 | 95.1 | C=C(C1=[N+](C)CCc2cc(OC)c(OC)cc21)c1ccc2c(c1C(=O)[O-])OCO2 [compound 3, Hypecotumine C]
4 | 59.9 | C=C(C1=[N+](C)CCc2cc3c(cc21)OCO3)c1ccc2c(c1C(=O)[O-])OCO2 [compound 4, Hypecotumine D]
